Data on 15 compounds can be found in US12624067B2, “Cyclic peptide, cell scaffold material, cell separating material, and medium” (FUJIFILM Corporation, priority 2019, dated 2026).

The nature of series [1]: Evaluation of molecule stability (alkali treatment, LC/MS residual rate). Format: physicochemical. To be noted: 500 μM peptide plus equivalent of 1 M sodium hydroxide, 15° C., 20 minutes, LC/MS peak area. The procedure, abridged: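 Cyclic peptide at 500 μM in water treated with an equivalent of 1 M NaOH for 20 minutes at 15° C. Residual rate is the total LC/MS peak area after treatment relative to that before treatment, set as 100%. Analysis on a C18 column at 45° C with ammonium formate pH 3 eluents and ESI detection.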

Series [2] addresses human integrin αvβ5 (Homo sapiens, UniProt P06756+P18084). The series is described as follows: Evaluation of integrin binding property (surface plasmon resonance, Biacore 3000, immobilized cyclic peptide). Particulars: peptide immobilized on CM5 sensor chip; human integrin αvβ5 30-1,000 nM, 25° C., HEPES buffer with 5 mM magnesium chloride; read-out: Integrin binding property (dissociation constant). The procedure, abridged:
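Cyclic peptides amine-coupled to a CM5 chip via EDC/NHS, with a blank reference channel; integrin injected 10 min at 25 °C at 30, 100, 300 and 1,000 nM in HEPES pH 7.4, 150 mM NaCl, 5 mM MgCl2, then 30 min buffer flow, EDTA regeneration. Kd from reference-subtracted responses, graded by category.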
(In general: SPR reads the build-up and loss of mass on a sensor chip optically.)

SMILES strings stand for the structures. Numbered stars: 1 amine (or outer) side, 2 acyl side, 3 side chain; on linkers, the order of the positions; unused ones are H or OH. Bridge positions count the residues as written; N and C are the ends. Square brackets hold non-standard residues; d marks the D form. Peptide text beside a SMILES is read from it. hCys = N[C@@H](CCS)C(=O)O; Orn = NCCC[C@H](N)C(=O)O; X1 = O=C(C[*:1])[*:2]; X2 = O=C(C[*:2])[*:1] Where only a bound is given, the exact number is not on record here.

human integrin αvβ5, sequence (P06756 31-889 limits assumed): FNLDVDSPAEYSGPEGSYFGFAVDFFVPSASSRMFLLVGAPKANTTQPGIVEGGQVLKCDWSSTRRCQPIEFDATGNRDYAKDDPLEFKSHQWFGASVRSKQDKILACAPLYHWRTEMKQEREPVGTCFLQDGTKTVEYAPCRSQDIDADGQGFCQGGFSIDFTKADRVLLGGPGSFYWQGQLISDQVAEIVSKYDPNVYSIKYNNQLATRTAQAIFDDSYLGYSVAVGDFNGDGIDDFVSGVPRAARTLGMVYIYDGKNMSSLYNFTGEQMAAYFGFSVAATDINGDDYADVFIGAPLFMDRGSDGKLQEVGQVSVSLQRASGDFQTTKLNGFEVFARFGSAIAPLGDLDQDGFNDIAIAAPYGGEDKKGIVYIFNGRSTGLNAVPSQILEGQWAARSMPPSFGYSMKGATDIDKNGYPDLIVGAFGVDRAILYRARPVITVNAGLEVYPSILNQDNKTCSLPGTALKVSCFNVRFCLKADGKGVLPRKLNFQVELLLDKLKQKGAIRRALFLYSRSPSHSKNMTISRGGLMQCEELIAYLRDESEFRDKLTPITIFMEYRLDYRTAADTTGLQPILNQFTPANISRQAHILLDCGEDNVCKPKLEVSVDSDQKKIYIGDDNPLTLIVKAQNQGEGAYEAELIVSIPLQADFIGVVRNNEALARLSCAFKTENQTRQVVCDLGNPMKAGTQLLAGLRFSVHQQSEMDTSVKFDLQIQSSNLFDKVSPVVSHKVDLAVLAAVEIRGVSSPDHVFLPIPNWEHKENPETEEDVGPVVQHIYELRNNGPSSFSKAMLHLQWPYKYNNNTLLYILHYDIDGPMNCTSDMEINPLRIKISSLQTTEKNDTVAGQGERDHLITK
human integrin αvβ5, sequence (P06756 891-1048 partner limits assumed): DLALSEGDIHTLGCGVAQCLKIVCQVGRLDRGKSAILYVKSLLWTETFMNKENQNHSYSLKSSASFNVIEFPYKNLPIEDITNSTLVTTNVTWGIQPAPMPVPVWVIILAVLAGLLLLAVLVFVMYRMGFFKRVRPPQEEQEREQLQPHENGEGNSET
human integrin αvβ5, sequence (P18084 24-799): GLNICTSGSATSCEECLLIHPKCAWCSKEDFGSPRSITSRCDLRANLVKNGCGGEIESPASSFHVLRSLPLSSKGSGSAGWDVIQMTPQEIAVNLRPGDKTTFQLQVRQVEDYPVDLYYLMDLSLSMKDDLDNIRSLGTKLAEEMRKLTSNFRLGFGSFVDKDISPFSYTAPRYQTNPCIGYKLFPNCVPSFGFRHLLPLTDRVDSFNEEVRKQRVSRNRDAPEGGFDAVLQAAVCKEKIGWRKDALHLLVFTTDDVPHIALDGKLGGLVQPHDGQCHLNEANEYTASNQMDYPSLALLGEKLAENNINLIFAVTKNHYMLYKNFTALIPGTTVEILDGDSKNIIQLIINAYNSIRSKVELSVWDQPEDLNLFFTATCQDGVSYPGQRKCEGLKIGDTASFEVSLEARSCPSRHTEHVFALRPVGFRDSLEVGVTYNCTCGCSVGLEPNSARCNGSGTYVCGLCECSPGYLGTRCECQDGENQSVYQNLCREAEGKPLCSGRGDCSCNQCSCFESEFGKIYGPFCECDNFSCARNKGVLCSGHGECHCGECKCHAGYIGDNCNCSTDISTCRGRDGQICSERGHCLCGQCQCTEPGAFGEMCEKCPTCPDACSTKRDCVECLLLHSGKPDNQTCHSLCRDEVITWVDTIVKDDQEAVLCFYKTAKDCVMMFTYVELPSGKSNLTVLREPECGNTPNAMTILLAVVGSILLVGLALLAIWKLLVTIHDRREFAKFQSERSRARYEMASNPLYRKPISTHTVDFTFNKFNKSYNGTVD

`CC[C@H](C)[C@@H]1NC(=O)CSCC[C@@H](C(=O)N[C@@H](CCCCN)C(=O)N[C@@H](CCCCN)C(=O)N[C@@H](CCCCN)C(=O)O)NC(=O)[C@H](CCCNC(=N)N)NC(=O)[C@H](Cc2ccccc2)NC(=O)[C@@H]2CCCCNC(=O)CSCC[C@H](NC1=O)C(=O)N[C@@H](CCCNC(=N)N)C(=O)NCC(=O)N[C@@H](CC(=O)O)C(=O)N2` [Cyclic peptide 33] ({CH2CO}-I[hCys]RGDKFR[hCys]KKK-OH; linker 2-6 via X1; thioether N-9): the “Molecule stability (cyclic peptide residual rate)” value in series [1] is “A (The residual rate of the cyclic peptide is 70% or more.)”. Besides, the Kd in series [2] lay in the range of 0.1 to 0.2 µM.

In the case of `CC[C@H](C)[C@@H]1NC(=O)CSCC[C@@H](C(=O)N[C@@H](CCCCN)C(=O)N[C@@H](CCCCN)C(=O)N[C@@H](CCCCN)C(=O)O)NC(=O)[C@H](C)NC(=O)[C@H](Cc2ccccc2)NC(=O)[C@@H]2CCCCNC(=O)CSCC[C@H](NC1=O)C(=O)N[C@@H](CCCNC(=N)N)C(=O)NCC(=O)N[C@@H](CC(=O)O)C(=O)N2` [Cyclic peptide 34] ({CH2CO}-I[hCys]RGDKFA[hCys]KKK-OH; linker 2-6 via X1; thioether N-9), the “Molecule stability (cyclic peptide residual rate)” value in series [1] was “A (The residual rate of the cyclic peptide is 70% or more.)”. The Kd in series [2] lay in the range of 0.05 to 0.1 µM.

As to `CC[C@H](C)[C@@H]1NC(=O)CSCC[C@@H](C(=O)N[C@@H](C)C(=O)N[C@@H](CCCCN)C(=O)N[C@@H](CCCCN)C(=O)N[C@@H](CCCCN)C(=O)O)NC(=O)[C@H](Cc2ccccc2)NC(=O)[C@@H]2CCCCNC(=O)CSCC[C@H](NC1=O)C(=O)N[C@@H](CCCNC(=N)N)C(=O)NCC(=O)N[C@@H](CC(=O)O)C(=O)N2` [Cyclic peptide 35] ({CH2CO}-I[hCys]RGDKF[hCys]AKKK-OH; linker 2-6 via X1; thioether N-8), in series [1], the “Molecule stability (cyclic peptide residual rate)” value is reported as “A (The residual rate of the cyclic peptide is 70% or more.)”. Moreover, the Kd in series [2] is less than 0.05 µM.

Consider `C[C@H](N)C(=O)N[C@H]1CCSCC(=O)NCCCC[C@@H](C(=O)N[C@@H](CCCCN)C(=O)N[C@@H](CCCCN)C(=O)N[C@@H](CCCCN)C(=O)O)NC(=O)[C@H](Cc2ccccc2)NC(=O)[C@@H]2CCCCNC(=O)CSCC[C@H](NC1=O)C(=O)N[C@@H](CCCNC(=N)N)C(=O)NCC(=O)N[C@@H](CC(=O)O)C(=O)N2` [Cyclic peptide 36] (H-A[hCys][hCys]RGDKFKKKK-OH; linker 2-9, 3-7 via X1), for which, in series [1], the “Molecule stability (cyclic peptide residual rate)” value was “A (The residual rate of the cyclic peptide is 70% or more.)”. In addition, the Kd in series [2] is 0.05 to 0.1 µM.

On to `C[C@H](NC(=O)[C@@H]1CCCCNC(=O)CSCC[C@H](NC(=O)[C@H](CCCCN)NC(=O)[C@H](CCCCN)NC(=O)[C@@H](N)CCCCN)C(=O)N[C@H]2CCSCC(=O)NCCCC[C@H](NC(=O)[C@H](CC(=O)O)NC(=O)CNC(=O)[C@H](CCCNC(=N)N)NC2=O)C(=O)N[C@@H](Cc2ccccc2)C(=O)N1)C(=O)O` [Cyclic peptide 37] (H-KKK[hCys][hCys]RGDKFKA-OH; linker 4-11, 5-9 via X1), for which the “Molecule stability (cyclic peptide residual rate)” value in series [1] was “A (The residual rate of the cyclic peptide is 70% or more.)”. Further, in series [2], the Kd was in the range of 0.05 to 0.1 µM.

`CC(C)[C@@H]1NC(=O)CSCC[C@@H](C(=O)N[C@@H](CCCCN)C(=O)N[C@@H](CCCCN)C(=O)N[C@@H](CCCCN)C(=O)O)NC(=O)[C@H](Cc2ccccc2)NC(=O)[C@@H]2CCSCC(=O)NCCC[C@H](NC1=O)C(=O)N[C@@H](CCCNC(=N)N)C(=O)NCC(=O)N[C@@H](CC(=O)O)C(=O)N2` [Cyclic peptide 38] ({CH2CO}-V[Orn]RGD[hCys]F[hCys]KKK-OH; linker 2-6 via X2; thioether N-8): the “Molecule stability (cyclic peptide residual rate)” value in series [1] is “A (The residual rate of the cyclic peptide is 70% or more.)”. The Kd in series [2] was less than 0.05 µM.

On to `N=C(N)NCCC[C@@H]1NC(=O)[C@@H]2CCCNC(=O)CSCC[C@H](NC(=O)[C@H](CC(=O)O)NC(=O)CNC1=O)C(=O)N[C@@H](Cc1ccccc1)C(=O)N[C@H](C(=O)N[C@@H](CCCCN)C(=O)N[C@@H](CCCCN)C(=O)N[C@@H](CCCCN)C(=O)O)CCSCC(=O)N[C@@H](CC(=O)O)C(=O)N2` [Cyclic peptide 39] ({CH2CO}-D[Orn]RGD[hCys]F[hCys]KKK-OH; linker 2-6 via X2; thioether N-8), for which the “Molecule stability (cyclic peptide residual rate)” value in series [1] was “A (The residual rate of the cyclic peptide is 70% or more.)”. Besides, the Kd in series [2] was less than 0.05 µM.

With `N=C(N)NCCC[C@@H]1NC(=O)[C@@H]2CCCNC(=O)CSCC[C@H](NC(=O)[C@H](CC(=O)O)NC(=O)CNC1=O)C(=O)N[C@@H](Cc1ccccc1)C(=O)N[C@H](C(=O)N[C@@H](CCCCN)C(=O)N[C@@H](CCCCN)C(=O)N[C@@H](CCCCN)C(=O)O)CCSCC(=O)N[C@@H](CCC(=O)O)C(=O)N2` [Cyclic peptide 40] ({CH2CO}-E[Orn]RGD[hCys]F[hCys]KKK-OH; linker 2-6 via X2; thioether N-8), the “Molecule stability (cyclic peptide residual rate)” value in series [1] is listed as “A (The residual rate of the cyclic peptide is 70% or more.)”. Also, the Kd in series [2] was less than 0.05 µM.

Regarding `CC(C)[C@@H]1NC(=O)CSCC[C@@H](C(=O)N[C@@H](CCCCN)C(=O)N[C@@H](CCCCN)C(=O)N[C@@H](CCCCN)C(=O)O)NC(=O)[C@H](Cc2ccccc2)NC(=O)[C@@H]2CCCNC(=O)CSCC[C@H](NC1=O)C(=O)N[C@@H](CCCNC(=N)N)C(=O)NCC(=O)N[C@@H](CC(=O)O)C(=O)N2` [Cyclic peptide 41] ({CH2CO}-V[hCys]RGD[Orn]F[hCys]KKK-OH; linker 2-6 via X1; thioether N-8), the “Molecule stability (cyclic peptide residual rate)” value in series [1] is reported as “A (The residual rate of the cyclic peptide is 70% or more.)”. For the same compound, the Kd in series [2] was 0.05 to 0.1 µM.

For the compound `N=C(N)NCCC[C@@H]1NC(=O)[C@@H]2CCSCC(=O)NCCC[C@H](NC(=O)[C@H](CC(=O)O)NC(=O)CNC1=O)C(=O)N[C@@H](Cc1ccccc1)C(=O)N[C@H](C(=O)N[C@@H](CCCCN)C(=O)N[C@@H](CCCCN)C(=O)N[C@@H](CCCCN)C(=O)O)CCSCC(=O)N[C@@H](CC(=O)O)C(=O)N2` [Cyclic peptide 42] ({CH2CO}-D[hCys]RGD[Orn]F[hCys]KKK-OH; linker 2-6 via X1; thioether N-8), the “Molecule stability (cyclic peptide residual rate)” value in series [1] is “A (The residual rate of the cyclic peptide is 70% or more.)”. Further, in series [2], the Kd was less than 0.05 µM.

On to `N=C(N)NCCC[C@@H]1NC(=O)[C@@H]2CCSCC(=O)NCCC[C@H](NC(=O)[C@H](CC(=O)O)NC(=O)CNC1=O)C(=O)N[C@@H](Cc1ccccc1)C(=O)N[C@H](C(=O)N[C@@H](CCCCN)C(=O)N[C@@H](CCCCN)C(=O)N[C@@H](CCCCN)C(=O)O)CCSCC(=O)N[C@@H](CCC(=O)O)C(=O)N2` [Cyclic peptide 43] ({CH2CO}-E[hCys]RGD[Orn]F[hCys]KKK-OH; linker 2-6 via X1; thioether N-8), for which the “Molecule stability (cyclic peptide residual rate)” value in series [1] was “A (The residual rate of the cyclic peptide is 70% or more.)”. Further, the Kd in series [2] was less than 0.05 µM.

For the compound `CC(C)[C@@H]1NC(=O)CSCC[C@@H](C(=O)N[C@@H](C)C(=O)N[C@@H](CCCCN)C(=O)N[C@@H](CCCCN)C(=O)N[C@@H](CCCCN)C(=O)O)NC(=O)[C@H](Cc2ccccc2)NC(=O)[C@@H]2CCCCNC(=O)CSCC[C@H](NC1=O)C(=O)N[C@@H](CCCNC(=N)N)C(=O)NCC(=O)N[C@@H](CC(=O)O)C(=O)N2` [Cyclic peptide 44] ({CH2CO}-V[hCys]RGDKF[hCys]AKKK-OH; linker 2-6 via X1; thioether N-8), the “Molecule stability (cyclic peptide residual rate)” value in series [1] is listed as “A (The residual rate of the cyclic peptide is 70% or more.)”. Further, the Kd in series [2] is less than 0.05 µM.

Consider `C[C@H](NC(=O)[C@@H]1CCSCC(=O)N[C@@H](CC(=O)O)C(=O)N[C@H]2CCSCC(=O)NCCCC[C@H](NC(=O)[C@H](CC(=O)O)NC(=O)CNC(=O)[C@H](CCCNC(=N)N)NC2=O)C(=O)N[C@@H](Cc2ccccc2)C(=O)N1)C(=O)N[C@@H](CCCCN)C(=O)N[C@@H](CCCCN)C(=O)N[C@@H](CCCCN)C(=O)O` [Cyclic peptide 45] ({CH2CO}-D[hCys]RGDKF[hCys]AKKK-OH; linker 2-6 via X1; thioether N-8), for which, in series [1], the “Molecule stability (cyclic peptide residual rate)” value is reported as “A (The residual rate of the cyclic peptide is 70% or more.)”. In series [2], the Kd was less than 0.05 µM.

With `C[C@H](NC(=O)[C@@H]1CCSCC(=O)N[C@@H](CCC(=O)O)C(=O)N[C@H]2CCSCC(=O)NCCCC[C@H](NC(=O)[C@H](CC(=O)O)NC(=O)CNC(=O)[C@H](CCCNC(=N)N)NC2=O)C(=O)N[C@@H](Cc2ccccc2)C(=O)N1)C(=O)N[C@@H](CCCCN)C(=O)N[C@@H](CCCCN)C(=O)N[C@@H](CCCCN)C(=O)O` [Cyclic peptide 46] ({CH2CO}-E[hCys]RGDKF[hCys]AKKK-OH; linker 2-6 via X1; thioether N-8), the “Molecule stability (cyclic peptide residual rate)” value in series [1] is “A (The residual rate of the cyclic peptide is 70% or more.)”. In series [2], the Kd was less than 0.05 µM.

For the compound `C[C@H](NC(=O)[C@@H]1CCSCC(=O)N[C@@H](CCC(=O)O)C(=O)N[C@H]2CCSCC(=O)NCCC[C@H](NC(=O)[C@H](CC(=O)O)NC(=O)CNC(=O)[C@H](CCCNC(=N)N)NC2=O)C(=O)N[C@@H](Cc2ccccc2)C(=O)N1)C(=O)N[C@@H](CCCCN)C(=O)N[C@@H](CCCCN)C(=O)N[C@@H](CCCCN)C(=O)O` [Cyclic peptide 47] ({CH2CO}-E[hCys]RGD[Orn]F[hCys]AKKK-OH; linker 2-6 via X1; thioether N-8), the “Molecule stability (cyclic peptide residual rate)” value in series [1] is recorded as “A (The residual rate of the cyclic peptide is 70% or more.)”. For the same compound, the Kd in series [2] is less than 0.05 µM.
